Usually EC50 stands for the midpoint of the concentration-response curve.

Marks after values point to notes of the source that are not given here.

In one series the target is T1, OR1N2 (Homo sapiens, UniProt Q8NGR9, T287M/V230G/W23R).
T1 construct: Improved functional expression of modified OR-genes containing the truncated, optimized C-terminus; expressed in transfected cells; host or cells: HEK293T stably expressing human RTP1S(V227I) and RTP2(L220R)
T1 sequence (Q8NGR9 with tags, fused parts or gaps W23R/V230G/T287M): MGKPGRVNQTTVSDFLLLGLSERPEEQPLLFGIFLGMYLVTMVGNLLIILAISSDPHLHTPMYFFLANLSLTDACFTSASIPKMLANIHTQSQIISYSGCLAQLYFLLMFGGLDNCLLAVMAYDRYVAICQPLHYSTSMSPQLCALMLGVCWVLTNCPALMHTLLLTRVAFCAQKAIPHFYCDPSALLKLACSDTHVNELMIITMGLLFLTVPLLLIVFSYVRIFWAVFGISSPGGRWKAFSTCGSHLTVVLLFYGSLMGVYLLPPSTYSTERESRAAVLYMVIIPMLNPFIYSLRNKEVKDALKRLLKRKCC
The series can be described thus: CRE-luciferase assay, HEK293T cells expressing OR1N2 (wild-type / modified C-terminus). In kind it is cell-based.

A further series concerns the target T2, OR5A1 (Homo sapiens, UniProt Q8NGJ0, I300V).
T2 construct: Improved functional expression of modified OR-genes containing the truncated, optimized C-terminus; expressed in transfected cells; host or cells: HEK293T stably expressing human RTP1S(V227I) and RTP2(L220R)
T2 sequence (Q8NGJ0 with tags, fused parts or gaps I300V): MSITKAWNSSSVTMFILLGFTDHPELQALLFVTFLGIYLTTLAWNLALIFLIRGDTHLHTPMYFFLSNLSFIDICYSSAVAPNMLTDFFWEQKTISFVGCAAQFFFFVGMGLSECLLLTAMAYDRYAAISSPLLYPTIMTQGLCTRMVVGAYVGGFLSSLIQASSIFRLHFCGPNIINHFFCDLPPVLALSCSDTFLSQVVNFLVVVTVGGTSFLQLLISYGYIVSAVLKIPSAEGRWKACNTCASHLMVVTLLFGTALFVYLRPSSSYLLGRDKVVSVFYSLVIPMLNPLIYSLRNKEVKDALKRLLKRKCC
The series can be described thus: CRE-luciferase assay, HEK293T cells expressing OR5A1 (wild-type / modified C-terminus). In kind it is cell-based.

A further series addresses T3, OR10H5 (Homo sapiens, UniProt Q8NGA6).
T3 construct: Improved functional expression of modified OR-genes containing the truncated, optimized C-terminus; expressed in transfected cells; host or cells: HEK293T stably expressing human RTP1S(V227I) and RTP2(L220R)
T3 sequence (Q8NGA6 with tags, fused parts or gaps): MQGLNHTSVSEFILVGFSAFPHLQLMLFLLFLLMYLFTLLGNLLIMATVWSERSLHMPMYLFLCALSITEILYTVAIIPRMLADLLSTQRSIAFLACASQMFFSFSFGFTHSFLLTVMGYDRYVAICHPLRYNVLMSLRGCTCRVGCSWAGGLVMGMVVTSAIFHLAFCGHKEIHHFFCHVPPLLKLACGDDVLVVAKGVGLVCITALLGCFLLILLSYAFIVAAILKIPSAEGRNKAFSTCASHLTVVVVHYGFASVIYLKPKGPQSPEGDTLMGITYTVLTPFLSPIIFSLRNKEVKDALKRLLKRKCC
The series is described as follows: CRE-luciferase assay, HEK293T cells expressing OR10H5 (wild-type / modified C-terminus). In kind it is cell-based. The source says: All tested receptors of Table 1 gave improved functional expression when the wild-type C-terminal domain was replaced with SEQ ID NO: 86. This functional expression was further improved when SEQ ID NO:86 was replaced with SEQ ID NO: 221 as shown for OR7C1 in Table 8 and for OR5B12 in Table 9. This additive improvement was further tested with OR10H5 (Table 18) and OR7A17 (Table 19). […] The full DNA sequences encoding the modified receptors are SEQ ID NO: 684 for OR10H5 and SEQ ID NO: 611 for OR7A17.

A further series has as its target T4, OR2J2 (Homo sapiens, UniProt O76002, A146V/A218T/A302I/G300K/H297E/H74Y).
T4 construct: expressed in transfected cells; transient transfection of pcDNA3.1(+) OR plasmid
T4 sequence (O76002 with tags, fused parts or gaps H74Y/A146V/A218T/H297E/G300K/A302I limits assumed): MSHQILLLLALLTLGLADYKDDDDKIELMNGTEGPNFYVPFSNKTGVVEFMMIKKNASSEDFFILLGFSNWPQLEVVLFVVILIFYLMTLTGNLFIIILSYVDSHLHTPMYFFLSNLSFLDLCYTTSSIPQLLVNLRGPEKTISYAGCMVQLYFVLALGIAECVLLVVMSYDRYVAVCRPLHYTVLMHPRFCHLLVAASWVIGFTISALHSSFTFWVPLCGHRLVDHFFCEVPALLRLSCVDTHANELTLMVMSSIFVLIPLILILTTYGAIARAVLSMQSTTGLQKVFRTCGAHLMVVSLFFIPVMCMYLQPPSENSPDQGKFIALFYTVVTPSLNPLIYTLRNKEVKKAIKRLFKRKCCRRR
The series can be described thus: Dose-response test of single lactones on OR2J2. In kind it is cell-based. The protocol:
(§1) In a subsequent de-convultion experiment, the single ingredients were tested in a dose-response test on all the identified OR. […] Thus, OR2AP1 and OR2J2 are particularly strongly activated by the long-chain dodecalactone gamma, while OR10A3 is very sensitive to several longer chain lactones. […] Among the five OR, OR10A3 is the most sensitive.

The next series has as its target T5, OR10A3 (Homo sapiens, UniProt P58181).
T5 construct: Class II OR library members with modified C-terminal domains; expressed in transfected cells
T5 sequence (P58181 with tags, fused parts or gaps): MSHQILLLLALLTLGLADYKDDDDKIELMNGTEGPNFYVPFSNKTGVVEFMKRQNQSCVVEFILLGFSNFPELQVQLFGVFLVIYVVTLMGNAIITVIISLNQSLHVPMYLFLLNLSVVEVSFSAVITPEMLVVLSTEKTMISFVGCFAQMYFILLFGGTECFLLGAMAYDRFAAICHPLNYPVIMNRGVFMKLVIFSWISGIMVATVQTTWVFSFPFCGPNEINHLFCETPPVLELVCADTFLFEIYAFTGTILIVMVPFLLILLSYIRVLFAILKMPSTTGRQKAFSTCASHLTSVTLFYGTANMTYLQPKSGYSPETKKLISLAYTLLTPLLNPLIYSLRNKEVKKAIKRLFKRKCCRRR
The series can be described thus: Dose-response test of single lactones on OR10A3 (luciferase). In kind it is cell-based. The protocol:
as §1

The next series addresses T6, OR10J1(M51I, I92M) (Homo sapiens, UniProt P30954, I103M/M62I).
T6 construct: expressed in transfected cells; transient transfection of pcDNA3.1(+) OR plasmid
T6 sequence (P30954 with tags, fused parts or gaps M62I/I103M): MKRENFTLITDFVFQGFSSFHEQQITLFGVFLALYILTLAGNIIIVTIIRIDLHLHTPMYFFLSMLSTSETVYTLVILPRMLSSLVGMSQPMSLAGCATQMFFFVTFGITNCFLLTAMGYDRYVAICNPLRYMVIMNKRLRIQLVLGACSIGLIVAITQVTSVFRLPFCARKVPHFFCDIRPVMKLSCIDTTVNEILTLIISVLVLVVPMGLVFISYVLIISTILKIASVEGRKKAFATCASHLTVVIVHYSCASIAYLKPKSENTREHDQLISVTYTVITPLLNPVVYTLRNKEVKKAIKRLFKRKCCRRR
The series can be described thus: Dose-response test of single lactones on OR10J1(M51I, I92M). In kind it is cell-based. The procedure:
as §1

For series [1], the target named is T7, OR10A6(A117V, V140G, L287P) (Homo sapiens, UniProt Q8NH74, A117V/L287P/V140G).
T7 construct: expressed in transfected cells; transient transfection of pcDNA3.1(+) OR plasmid
T7 sequence (Q8NH74 with tags, fused parts or gaps A117V/V140G/L287P limits assumed): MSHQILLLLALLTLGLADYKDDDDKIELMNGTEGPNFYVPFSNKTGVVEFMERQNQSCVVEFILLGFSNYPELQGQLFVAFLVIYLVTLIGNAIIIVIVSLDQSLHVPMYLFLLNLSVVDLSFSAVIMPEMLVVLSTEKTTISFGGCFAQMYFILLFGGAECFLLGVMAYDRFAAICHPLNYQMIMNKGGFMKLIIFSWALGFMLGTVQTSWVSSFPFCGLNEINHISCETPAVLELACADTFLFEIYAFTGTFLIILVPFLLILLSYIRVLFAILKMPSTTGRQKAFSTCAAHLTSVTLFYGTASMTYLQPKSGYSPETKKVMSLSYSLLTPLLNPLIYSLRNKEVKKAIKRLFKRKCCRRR
The series is described as follows: Dose-response test of single lactones on OR10A6(A117V, V140G, L287P). In kind it is cell-based. The protocol:
as §1

The next series concerns the target T8, OR2T4 (Homo sapiens, UniProt Q8NH00, D328E/G331D/M330K).
T8 sequence (Q8NH00 with tags, fused parts or gaps D328E/M330K/G331D): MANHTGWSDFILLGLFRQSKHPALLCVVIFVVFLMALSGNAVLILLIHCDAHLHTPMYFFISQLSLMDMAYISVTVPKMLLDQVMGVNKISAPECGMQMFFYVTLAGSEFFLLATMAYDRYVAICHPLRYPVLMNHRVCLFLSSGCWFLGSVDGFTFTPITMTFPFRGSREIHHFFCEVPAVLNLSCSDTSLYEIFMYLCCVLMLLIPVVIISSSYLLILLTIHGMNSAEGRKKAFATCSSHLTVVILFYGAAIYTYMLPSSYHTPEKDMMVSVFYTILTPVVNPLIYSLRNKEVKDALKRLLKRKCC
The conditions noted are these: OR2T4 with optimized C-terminus SEQ ID NO: 86.

The next series addresses T9, OR2T11 (Homo sapiens, UniProt Q8NH01, C119R).
T9 construct: Improved functional expression of modified OR-genes containing the truncated, optimized C-terminus; expressed in transfected cells; host or cells: HEK293T stably expressing human RTP1S(V227I) and RTP2(L220R)
T9 sequence (Q8NH01 with tags, fused parts or gaps C119R): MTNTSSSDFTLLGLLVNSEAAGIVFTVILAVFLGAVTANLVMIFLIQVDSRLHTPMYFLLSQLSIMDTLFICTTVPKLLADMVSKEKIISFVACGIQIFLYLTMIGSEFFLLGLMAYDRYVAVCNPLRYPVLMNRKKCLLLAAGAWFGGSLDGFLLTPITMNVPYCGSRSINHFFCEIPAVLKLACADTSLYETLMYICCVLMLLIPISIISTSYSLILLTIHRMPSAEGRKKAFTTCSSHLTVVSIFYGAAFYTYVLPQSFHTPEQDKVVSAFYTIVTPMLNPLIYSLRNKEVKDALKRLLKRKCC
The series can be described thus: CRE-luciferase assay, HEK293T cells expressing OR2T11 (wild-type / modified C-terminus). In kind it is cell-based.

Turning to `O=C1CCCCCCCC=CCCCCCCO1` [Ambrettolide], the Comments on efficacy at OR1N2 is 1.5. At OR1N2 (changed C-term. SEQ ID NO: 86), the “Detection threshold; concentration for 2-fold induction” value stood at 0.26 µM. On OR1N2 (changed C-term. vs wild-type), this compound registered a Fold-improvement potency of 1.5 and a Fold-improvement threshold of 5.2. Also, at OR1N2 (wild-type), the “Detection threshold; concentration for 2-fold induction” value was found to be 1.33 µM.

On to `CC(=O)/C=C/C1=C(C)CCCC1(C)C` [Beta-ionone], for which, on OR5A1, the Comments on efficacy is reported as 4-fold lower. At OR5A1 (changed C-term. SEQ ID NO: 86), the “Detection threshold; concentration for 2-fold induction” value was 3.2 µM. On OR5A1 (changed C-term. vs wild-type), this compound gave a Fold-improvement potency of 1.8 and a Fold-improvement threshold of 5.9. Further, on OR5A1 (wild-type), the “Detection threshold; concentration for 2-fold induction” value came out at 19.1 µM and the EC50 came to 5.5 µM.

Take `Cc1ccc2c(c1)OCC(=O)CO2` [Calone]: the Comments on efficacy on OR10H5 was 3-fold lower. Moreover, the “Detection threshold; concentration for 2-fold induction” value on OR10H5 (changed C-term. SEQ ID NO: 86) turned out to be 24.3 µM; at OR10H5 (wild-type) it was 60.1 µM. For the same compound, the Fold-improvement threshold at OR10H5 (changed C-term. vs wild-type) came to 2.5. In addition, the Fold-improvement potency at OR10H5 (changed C-term. vs wild-type, higher EC50 due to much higher efficacy of optimized C-terminus) was 0.7 *.

Turning to `CCCCCC1CCCC(=O)O1` (stereo not shown) [Decalactone delta], the “EC2 (concentration for 2-fold luciferase induction)” value on OR2J2 was determined as 98.89 µM; at OR10J1(M51I, I92M), 31.73 µM; in [1], 5.31 µM. In addition, at OR10A3, the “EC10, concentration for 10-fold OR activation” value was found to be 2.10 μM.

As for `C=CCSSCC=C` [Diallyl disulfide], the “ligand identification in sulfur odorant screen” value on OR2T4 is “good ligands”. Besides, the Comments on efficacy result at OR2T11 was “No induction”. In addition, at OR2T11 (changed C-term. SEQ ID NO: 86), the “Detection threshold; concentration for 2-fold induction” value worked out at 2.03 µM and the response was half-maximal at 6.51 µM (EC50). For the same compound, at OR2T11 (changed C-term. vs wild-type), the Fold-improvement potency is reported as >>40 and the Fold-improvement threshold was more than 100. Besides, at OR2T11 (wild-type), the “Detection threshold; concentration for 2-fold induction” value is more than 200 µM and the EC50 was more than 200 µM.

These data come from patent US20260210939A1, “MODIFIED OLFACTORY RECEPTORS” (GIVAUDAN SA, priority 2022, published 2026).
